The NIST ThermoML archive (doi:10.1021/je900632q)

Test: xn = mol fraction of the nth substance listed
Conditions: 101 kPa, Liquid

CCCCn1cc[n+](C)c1.N#CN=C=[N-] [1-butyl-3-methylimidazolium dicyanamide] + O
Conditions | mass density [kg/m3] | viscosity [mPa·s]
278.15 K, x2 = 0 | 1075.8 | 82.07
278.15 K, x2 = 0.059 | 1075.3 | 74.2
278.15 K, x2 = 0.1963 | 1074.3 | 58.7
278.15 K, x2 = 0.2736 | 1072.8 | 48.94
278.15 K, x2 = 0.35 | 1071.1 | 37.6
278.15 K, x2 = 0.3974 | 1069.4 | 31.98
278.15 K, x2 = 0.4831 | 1066.2 | 23.22
288.15 K, x2 = 0 | 1069.4 | 48.93
288.15 K, x2 = 0.059 | 1068.9 | 44.99
288.15 K, x2 = 0.1963 | 1067.8 | 36.45
288.15 K, x2 = 0.2736 | 1066.4 | 30.87
288.15 K, x2 = 0.35 | 1064.6 | 24.28
288.15 K, x2 = 0.3974 | 1062.9 | 20.88
288.15 K, x2 = 0.4831 | 1059.6 | 15.38
298.15 K, x2 = 0 | 1063.1 | 31.8
298.15 K, x2 = 0.059 | 1062.5 | 29.55
298.15 K, x2 = 0.1963 | 1061.4 | 24.4
298.15 K, x2 = 0.2736 | 1059.9 | 20.94
298.15 K, x2 = 0.35 | 1059.1 | 16.75
298.15 K, x2 = 0.3974 | 1056.3 | 14.52
298.15 K, x2 = 0.4831 | 1052.9 | 10.8
308.15 K, x2 = 0 | 1056.8 | 21.79
308.15 K, x2 = 0.059 | 1056.2 | 20.6
308.15 K, x2 = 0.1963 | 1055 | 17.29
308.15 K, x2 = 0.2736 | 1053.6 | 15
308.15 K, x2 = 0.35 | 1051.6 | 12.16
308.15 K, x2 = 0.3974 | 1049.8 | 10.61
308.15 K, x2 = 0.4831 | 1046.2 | 7.951
318.15 K, x2 = 0 | 1050.6 | 15.88
318.15 K, x2 = 0.059 | 1050.1 | 15.09
318.15 K, x2 = 0.1963 | 1048.7 | 12.82
318.15 K, x2 = 0.2736 | 1047.3 | 11.22
318.15 K, x2 = 0.35 | 1045.2 | 9.198
318.15 K, x2 = 0.3974 | 1043.3 | 8.072
318.15 K, x2 = 0.4831 | 1039.6 | 6.072
328.15 K, x2 = 0 | 1044.4 | 12.06
328.15 K, x2 = 0.059 | 1043.9 | 11.49
328.15 K, x2 = 0.1963 | 1042.4 | 9.885
328.15 K, x2 = 0.2736 | 1041 | 8.702
328.15 K, x2 = 0.35 | 1038.8 | 7.202
328.15 K, x2 = 0.3974 | 1036.9 | 6.346
328.15 K, x2 = 0.4831 | 1033 | 4.792
338.15 K, x2 = 0 | 1038.2 | 9.475
338.15 K, x2 = 0.059 | 1037.7 | 9.047
338.15 K, x2 = 0.1963 | 1036.2 | 7.852
338.15 K, x2 = 0.2736 | 1034.7 | 6.95
338.15 K, x2 = 0.35 | 1032.4 | 5.798
338.15 K, x2 = 0.3974 | 1030.5 | 5.126
338.15 K, x2 = 0.4831 | 1026.4 | 3.884
348.15 K, x2 = 0 | 1032.1 | 7.643
348.15 K, x2 = 0.059 | 1031.5 | 7.314
348.15 K, x2 = 0.1963 | 1030 | 6.397
348.15 K, x2 = 0.2736 | 1028.5 | 5.688
348.15 K, x2 = 0.35 | 1026.1 | 4.777
348.15 K, x2 = 0.3974 | 1024.1 | 4.237
348.15 K, x2 = 0.4831 | 1019.8 | 3.223
358.15 K, x2 = 0 | 1025.8 | 6.304
358.15 K, x2 = 0.059 | 1025.3 | 6.048
358.15 K, x2 = 0.1963 | 1023.8 | 5.322
358.15 K, x2 = 0.2736 | 1022.3 | 4.748
358.15 K, x2 = 0.35 | 1019.8 | 4.007
358.15 K, x2 = 0.3974 | 1017.7 | 3.577
358.15 K, x2 = 0.4831 | 1013.2 | 2.711
